Experimental data: patent publication US20260258032A1, “TYROSINE KINASE 2 INHIBITORS AND USES THEREOF” (BIOGEN MA INC., priority 2022, published 2026)
Where a name gives a salt, the structure may show the parent alone.

Assays:
[1] = tested on: JAK1 kinase activity on STAT3; test: pSTAT3 cell assay (MSD, TF1 cells, IL-6 stimulated); assay type: cell-based; conditions: Homo sapiens, TF-1, compounds 1 hour, 30 ng/mL IL-6 for 15 minutes
Procedure: The inhibitory potency of compounds of the disclosure against the JAK1 kinase activity on STAT3 was evaluated using an MSD-platform plate-based assay format. TF1 cells natively expressing STAT3 and JAK1 were serum-starved to reduce background phosphorylation levels, then cells were treated with compounds of the disclosure for 1 hour with a 10-point four-fold dilution series starting at 10 μM. Cells were then stimulated with 30 ng/mL interleukin 6 (IL-6) for 15 minutes. Cells were lysed and pSTAT3 levels were quantitated using an MSD plate-based assay with anti-STAT3 antibodies. The data were normalized and the percent activity versus log concentration of compound was fitted with a 4-parameter logistic model to generate IC50 curves.

JH2 domain of human Tyk2 = biological target: T1, JH2 domain of human Tyk2 (Homo sapiens, UniProt P29597); test: JH2 biochemical assay (TR-FRET probe displacement); assay type: binding
T1 construct: 10×His-tagged TYK2 JH2 domain (amino acid 575-876)
T1 sequence (P29597 575-876): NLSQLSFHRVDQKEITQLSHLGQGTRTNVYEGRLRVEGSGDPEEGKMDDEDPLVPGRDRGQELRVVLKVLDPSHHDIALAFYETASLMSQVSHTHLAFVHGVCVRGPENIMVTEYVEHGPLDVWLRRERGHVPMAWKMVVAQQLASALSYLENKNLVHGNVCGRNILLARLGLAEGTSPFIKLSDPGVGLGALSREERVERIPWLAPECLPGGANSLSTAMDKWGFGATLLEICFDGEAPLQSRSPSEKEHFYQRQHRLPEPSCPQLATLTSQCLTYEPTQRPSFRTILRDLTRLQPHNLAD
In short: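 10×His-tagged human TYK2 JH2 (aa 575-876, 2 nM) incubated 60 min with 2 nM fluorescent probe, 0.1 nM Tb anti-His antibody and compound (10-point 3-fold series from […] top). TR-FRET 520/495 nm ratio, falling with probe displacement, normalized and fitted to a 4-parameter logistic for IC50.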

[2] = tested on: JAK2 kinase activity on STAT5; test: pSTAT5 cell assay (MSD, TF1 cells, IL-3 stimulated); assay type: cell-based; conditions: Homo sapiens, TF-1, compounds 1 hour, 30 ng/mL IL-3 for 15 minutes
Procedure: Compounds of the disclosure were assessed for their ability to inhibit the JAK2 kinase activity on STAT5 utilizing an MSD-platform plate-based assay format. TF1 cells natively expressing STAT5 and JAK2 were serum-starved to reduce background phosphorylation levels, then cells were treated with compounds of disclosure for 1 hour with a 10-point four-fold dilution series starting at 10 μM. Cells were then stimulated with 30 ng/mL IL-3 for 15 minutes. Cells were then lysed and pSTAT5 levels were quantitated using an MSD plate-based assay with anti-STAT5 antibodies. The data were normalized and the percent activity versus log concentration of compound was fitted with a 4-parameter logistic model to generate a curve and an IC50 value.

[3] = tested on: Tyk2 kinase activity on STAT4; test: pSTAT4 cell assay (MSD, NK92 cells); assay type: cell-based; conditions: compounds 1 hr
In short: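 Serum-starved NK92 cells, which natively express Tyk2 and STAT4, were pretreated for 1 h with a 10-point 4-fold dilution series from 10 μM. They were then stimulated with 30 ng/mL IL2 for 15 min. Phospho-STAT in lysates was quantified by MSD with anti-STAT4 antibodies, and IC50 was obtained from 4-parameter logistic fits.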

[4] = TR-FRET probe displacement, JH2 domain of human Tyk2

| Structure (SMILES) | IC50 [1] [nM] | IC50 (JH2 domain of human Tyk2; JH2 biochemical assay) [nM] | IC50 [2] [nM] | IC50 ([3]; stimulated 15 minutes) [nM] | IC50 (JH2 domain of human Tyk2; [4]) [nM] | IC50 ([3]; then stimulated 15 minutes) [nM] |
| --- | --- | --- | --- | --- | --- | --- |
| CC(=O)Nc1cc2c(cn1)C(C)(C)CN2c1ccnc(C(C)(F)F)n1 [Example 38, N-(1-(2-(1,1-difluoroethyl)pyrimidin-4-yl)-3,3-dimethyl-2,3-dihydro-1H-pyrrolo[3,2-c]pyridin-6-yl)acetamide] | ≥ 1000 | ≥ 1000 | ≥ 1000 | ≥ 1000 | – | – |
| CC(=O)Nc1cc2c(cn1)C(C)(C)CN2c1nccc(C(C)(F)F)n1 [Example 39, N-(1-(4-(1,1-difluoroethyl)pyrimidin-2-yl)-3,3-dimethyl-2,3-dihydro-1H-pyrrolo[3,2-c]pyridin-6-yl)acetamide] | ≥ 1000 | ≥ 1000 | ≥ 1000 | ≥ 1000 | – | – |
| CC(=O)Nc1cc2c(cn1)C1(CCC1)CN2c1ccnc(C(C)(F)F)n1 [Example 41, N-(1′-(2-(1,1-difluoroethyl)pyrimidin-4-yl)-1′,2′-dihydrospiro[cyclobutane-1,3′-pyrrolo[3,2-c]pyridin]-6′-yl)acetamide] | ≥ 1000 | 10 to 100 | ≥ 1000 | ≥ 1000 | – | – |
| CC(=O)Nc1cc2c(cn1)C1(CCC1)CN2c1cccc(C(C)(F)F)n1 [Example 42, N-(1′-(6-(1,1-difluoroethyl)pyridin-2-yl)-1′,2′-dihydrospiro[cyclobutane-1,3′-pyrrolo[3,2-c]pyridin]-6′-yl)acetamide] | ≥ 1000 | 10 to 100 | ≥ 1000 | ≥ 1000 | – | – |
| COCCNc1cc(N2CC3(CC3)c3cnc(NC(C)=O)cc32)nc(C(C)(F)F)n1 [Example 49, N-(1′-(2-(1,1-difluoroethyl)-6-((2-methoxyethyl)amino)pyrimidin-4-yl)-1′,2′-dihydrospiro[cyclopropane-1,3'-pyrrolo[3,2-c]pyridin]-6'-yl)acetamide] | ≥ 1000 | ≤ 10 | ≥ 1000 | 10 to 100 | – | – |
| CC(=O)Nc1cc2c(cn1)C(C)(C)CN2c1cccc(C(C)(F)F)n1 [Example 76, N-(1-(6-(1,1-difluoroethyl)pyridin-2-yl)-3,3-dimethyl-2,3-dihydro-1H-pyrrolo[3,2-c]pyridin-6-yl)acetamide trifluoroacetate] | ≥ 1000 | 100 to 1000 | ≥ 1000 | ≥ 1000 | – | – |
| CC(=O)Nc1cc2c(cn1)C1(CC1)CN2c1nc(C)cc(C(C)(F)F)n1 [Example 83, N-(1′-(4-(1,1-difluoroethyl)-6-methylpyrimidin-2-yl)-1′,2′-dihydrospiro[cyclopropane-1,3′-pyrrolo[3,2-c]pyridin]-6′-yl)acetamide] | ≥ 1000 | ≤ 10 | ≥ 1000 | 100 to 1000 | – | – |
| CC(=O)Nc1cc2c(cn1)C1(CC1)CN2c1cccc(C2COC2)n1 [Example 84, N-(1′-(6-(oxetan-3-yl)pyridin-2-yl)-1′,2′-dihydrospiro[cyclopropane-1,3′-pyrrolo[3,2-c]pyridin]-6′-yl)acetamide] | ≥ 1000 | 10 to 100 | ≥ 1000 | ≥ 1000 | – | – |
| CC(=O)Nc1cc2c(cn1)C1(CC1)CN2c1cccc(C2(F)COC2)n1 [Example 85, N-(1′-(6-(3-fluorooxetan-3-yl)pyridin-2-yl)-1′,2′-dihydrospiro[cyclopropane-1,3′-pyrrolo[3,2-c]pyridin]-6′-yl)acetamide] | ≥ 1000 | 10 to 100 | ≥ 1000 | ≥ 1000 | – | – |
| COC1(c2cccc(N3CC4(CC4)c4cnc(NC(C)=O)cc43)n2)COC1 [Example 87, N-(1′-(6-(3-methoxyoxetan-3-yl)pyridin-2-yl)-1′,2′-dihydrospiro[cyclopropane-1,3′-pyrrolo[3,2-c]pyridin]-6′-yl)acetamide] | ≥ 1000 | 10 to 100 | ≥ 1000 | ≥ 1000 | – | – |
| CC(=O)Nc1cc2c(cn1)C1(CC1)CN2c1cc(C)nc(C(C)(F)F)n1 [Example 88, N-(1′-(2-(1,1-difluoroethyl)-6-methylpyrimidin-4-yl)-1′,2′-dihydrospiro[cyclopropane-1,3′-pyrrolo[3,2-c]pyridin]-6′-yl)acetamide] | ≥ 1000 | ≤ 10 | ≥ 1000 | 10 to 100 | – | – |
| CCC(=O)Nc1cc2c(cn1)C1(CC1)CN2c1cccc(C(C)(F)F)n1 [Example 90, N-(1′-(6-(1,1-difluoroethyl)pyridin-2-yl)-1′,2′-dihydrospiro[cyclopropane-1,3′-pyrrolo[3,2-c]pyridin]-6′-yl)propionamide] | ≥ 1000 | ≤ 10 | ≥ 1000 | 10 to 100 | – | – |
| CC(=O)Nc1cc2c(cn1)C1(CC1)CN2c1cc(-c2cnn(C)c2)nc(C(C)(F)F)n1 [Example 238, N-(1′-(2-(1,1-difluoroethyl)-6-(1-methyl-1H-pyrazol-4-yl)pyrimidin-4-yl)-1′,2′-dihydrospiro[cyclopropane-1,3′-pyrrolo[3,2-c]pyridin]-6′-yl)acetamide] | ≥ 1000 | ≤ 10 | ≥ 1000 | ≤ 10 | – | – |
| CC(=O)Nc1cc2c(cn1)C1(CCN(C)CC1)CN2c1nccc(C(C)(F)F)n1 [Example 274, N-(1′-(4-(1,1-difluoroethyl)pyrimidin-2-yl)-1-methyl-1′,2′-dihydrospiro[piperidine-4,3′-pyrrolo[3,2-c]pyridin]-6′-yl)acetamide trifluorocetate] | ≥ 1000 | 100 to 1000 | ≥ 1000 | ≥ 1000 | – | – |
| CC(=O)Nc1cc2c(cn1)C1(CCN(C)CC1)CN2c1ccnc(C(C)(F)F)n1 [Example 275, N-(1′-(2-(1,1-difluoroethyl)pyrimidin-4-yl)-1-methyl-1′,2′-dihydrospiro[piperidine-4,3′-pyrrolo[3,2-c]pyridin]-6′-yl)acetamide trifluoroacetate] | ≥ 1000 | ≥ 1000 | ≥ 1000 | ≥ 1000 | – | – |
| CNC(=O)Nc1cc2c(cn1)C1(CC1)CN2c1cc(C)nc(C(C)(F)F)n1 [Example 307, 1-(1′-(2-(1,1-difluoroethyl)-6-methylpyrimidin-4-yl)-1′,2′-dihydrospiro[cyclopropane-1,3′-pyrrolo[3,2-c]pyridin]-6′-yl)-3-methylurea] | ≥ 1000 | ≤ 10 | ≥ 1000 | 10 to 100 | – | – |
| Cc1cc(N2CC3(CC3)c3cnc(NC(N)=O)cc32)nc(C(C)(F)F)n1 [Example 308, 1-(1′-(2-(1,1-difluoroethyl)-6-methylpyrimidin-4-yl)-1′,2′-dihydrospiro[cyclopropane-1,3′-pyrrolo[3,2-c]pyridin]-6′-yl)urea] | ≥ 1000 | ≤ 10 | ≥ 1000 | ≤ 10 | – | – |
| CCc1cc(N2CC3(CC3)c3cnc(NC(C)=O)cc32)nc(C23COC(C2)C3)n1 [Example 322, N-(1′-(2-(2-oxabicyclo[2.1.1]hexan-4-yl)-6-ethylpyrimidin-4-yl)-1′,2′-dihydrospiro[cyclopropane-1,3′-pyrrolo[3,2-c]pyridin]-6′-yl)acetamide] | ≥ 1000 | ≤ 10 | ≥ 1000 | 10 to 100 | – | – |
| CCn1cc(-c2cc(N3CC4(CC4)c4cnc(NC(C)=O)cc43)nc(C(C)(F)F)n2)cn1 [Example 384, N-(1′-(2-(1,1-difluoroethyl)-6-(1-ethyl-1H-pyrazol-4-yl)pyrimidin-4-yl)-1′,2′-dihydrospiro[cyclopropane-1,3′-pyrrolo[3,2-c]pyridin]-6′-yl)acetamide trifluoroacetate] | ≥ 1000 | – | ≥ 1000 | – | ≤ 10 | 10 to 100 |
| CC(=O)Nc1cc2c(cn1)C1(CC1)CN2c1cc(-c2cnn(C(C)C)c2)nc(C(C)(F)F)n1 [Example 386, N-(1′-(2-(1,1-difluoroethyl)-6-(1-isopropyl-1H-pyrazol-4-yl)pyrimidin-4-yl)-1′,2′-dihydrospiro[cyclopropane-1,3′-pyrrolo[3,2-c]pyridin]-6′-yl)acetamide trifluoroacetate] | ≥ 1000 | – | ≥ 1000 | – | ≤ 10 | ≤ 10 |
